Experimental data as given in patent publication US6673937B2, “Syntheses and methods of use of new antimitotic agents” (The University of Pittsburgh, priority 2000, dated 2004).

How the values were obtained:
tsFT210 cells = test: Flow cytometry, G2/M arrest in tsFT210 cells; format: cell-based, mouse; details: 2.5 to 10 μM, 6 hours after release at 32.0° C.
Description: Oncogene 18:6989-6996, Th′ng JP, Wright PS, Hamaguchi J, Lee MG, Norbury CJ, Nurse P and Bradbury EM (1990) The FT210 cell line is a mouse G2 phase mutant with a temperature-sensitive CDC2 gene product. Cell 63:313-324.). Cell proliferation was blocked at G2 phase by incubation at 39.4° C. for 17 h. The synchronized cells were then released by re-incubating at 32.0° C. and treated immediately with 0-10 μM SR-7, 1 μM nocodazole or 100 EM SC-ααδ9, respectively, to probe for G2/M arrest. […] The harvested cells were stained with a solution containing 50 μg/ml propidium iodide and 250 μg/ml RNase A. Flow cytometry analysis was conducted with a Becton Dickinson FACS Star (Franklin Lakes, N.J.). […] This G2/M retention at 4C is probably due to the extended cell cycle blockage at 39.4° C. (Osada H, Cui CB, Onose R and Hanaoka F (1997) Screening of cell cycle inhibitors from microbial metabolites by a bioassay using a mouse cdc2 mutant cell line, tsFT210. Bioorg Med Chem 5:193-203). […] SC-ααδ9 is an inhibitor of the Cdc25 family of phosphatases that controls cell cycle checkpoints (Rice RL, Rusnak JM, Yokokawa F, Yokokawa S, Messner DJ, Boynton AL, Wipf P and Lazo JS (1997) A targeted library of small molecule, tyrosine and dual specificity phosphatase inhibitors derived from a rational core design and random side chain variation. Biochemistry 36:15965-15974).

[1] = test system: 1 A9, 1 A9/PTX10 and 1 A9/PTX22 cells; test: Growth inhibition of paclitaxel-sensitive and -resistant 1A9 cells; format: cell-based, human
Description: Two compounds, 24 referred to herein as SR-4 and 27 referred to herein as SR-7, were examined in greater detail as to their effects on biological activity. The proliferation of MCF-7, MDA-MB-231 and SV40 transformed mouse embryonic fibroblasts was measured by a previously described colorimetric assay (Wipf P, Jung J-K, Rodriguez S, Lazo JS Synthesis and biological evaluation of Deoxypreussomerin A and Palmarumycin CP 1 and related naphthoquinone spiroketals. Tetrahedron 57:283-296, 2001 and Vogt A, Rice RL, Settineri CE, Yokokawa F, Yokokawa S, Wipf P and Lazo JS (1998) Disruption of insulin-like growth factor-I signaling and down-regulation of Cdc2 by SC-ααδ9, a novel small molecule antisignaling agent identified in a targeted array library. J Pharmacol Exptl Therap 287:806-813.). Briefly, the inventors seeded 4,000-6,000 cells per well in microtiter plates. […] Plates were incubated for 3 hours in the dark and total cell number was determined by spectrophotometrically at 540 nm as previously described (Vogt A, Rice RL, Settineri CE, Yokokawa F, Yokokawa S, Wipf P and Lazo JS (1998) Disruption of insulin-like growth factor-1 signaling and down-regulation of Cdc2 by SC-ααδ9, a novel small molecule antisignaling agent identified in a targeted array library. J Pharmacol Exptl Therap 287:806-813.). […]

PTPIB = biological target: T1, PTPIB (Homo sapiens, UniProt P18031); test: In vitro inhibition of PTPIB; format: biochemical; details: 30 μM, data not shown
T1 sequence (P18031 1-435): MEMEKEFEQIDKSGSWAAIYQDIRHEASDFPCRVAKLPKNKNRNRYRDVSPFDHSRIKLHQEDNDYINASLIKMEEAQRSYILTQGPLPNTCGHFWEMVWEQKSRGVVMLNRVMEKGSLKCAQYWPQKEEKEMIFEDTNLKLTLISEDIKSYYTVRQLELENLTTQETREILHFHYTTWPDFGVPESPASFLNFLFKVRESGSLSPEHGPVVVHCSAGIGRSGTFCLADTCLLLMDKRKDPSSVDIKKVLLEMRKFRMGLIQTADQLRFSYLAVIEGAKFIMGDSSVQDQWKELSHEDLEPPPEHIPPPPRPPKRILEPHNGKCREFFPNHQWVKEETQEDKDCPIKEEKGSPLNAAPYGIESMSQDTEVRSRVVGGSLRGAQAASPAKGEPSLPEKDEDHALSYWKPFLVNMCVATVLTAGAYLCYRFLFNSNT

bovine brain tubulin = test: GTP-induced tubulin assembly (turbidity); format: biochemical; details: 40 μM
Description: Tubulin without microtubule-associated proteins was isolated from fresh bovine brains (Hamel E and Lin CM (1984). Separation of active tubulin and microtubule-associated proteins by ultracentrifugation and isolation of a component causing the formation of microtubule bundles. Biochemistry 23:4173-4184). Inhibition of assembly reactions was carried out as described previously (Verdier-Pinard P, Lai J-Y, Yoo H-D, Yu J, Marquez B, Nagle DG, Nambu M, White JD, Falck JR, Gerwick WH, Day BW and Hamel E (1998) Structure-activity analysis of the interaction of curacin A, the potent colchicine site antimitotic agent, with tubulin and effects of analogs on the growth of MCF-7 breast cancer cells. Mol Pharmacol 53:62-76.).
The inventors examined the ability of SR-7 to alter tubulin polymerization or depolymerization in vitro. FIG. 28, Panel A. Compounds (predissolved in DMSO) were preincubated with tubulin containing monosodium glutamate at 30 ° C. for 15 min. Samples were cooled to 0 ° C. and GTP was added. Samples were placed in a temperature-controlled multi-cuvette holder of a spectrophotometer held at 0 ° C. Baselines were established and temperature was rapidly raised to 30 ° C. Turbidity development in the cuvettes was measured at 350 nm. FIG. 28, Panel B. Compounds were added to the tubulin plus monosodium glutamate mixture at 0 ° C., placed in the spectrophotometer and temperature was raised to 30 ° C. Addition of 0.4 mM GTP to isolated bovine brain tubulin produced robust polymerization that began to plateau approximately 20 min after microtubule assembly commenced (Panel A).

[2] = test system: mouse embryonic fibroblasts transformed with SV40 large T antigen; test: Proliferation of SV40 transformed mouse embryonic fibroblasts; format: cell-based; details: Mus musculus, Fibroblast; data not shown; read-out: concentration required to inhibit growth by 50%
Description: Two compounds, 24 referred to herein as SR-4 and 27 referred to herein as SR-7, were examined in greater detail as to their effects on biological activity. The proliferation of MCF-7, MDA-MB-231 and SV40 transformed mouse embryonic fibroblasts was measured by a previously described colorimetric assay (Wipf P, Jung J-K, Rodriguez S, Lazo JS Synthesis and biological evaluation of Deoxypreussomerin A and Palmarumycin CP 1 and related naphthoquinone spiroketals. Tetrahedron 57:283-296, 2001 and Vogt A, Rice RL, Settineri CE, Yokokawa F, Yokokawa S, Wipf P and Lazo JS (1998) Disruption of insulin-like growth factor-I signaling and down-regulation of Cdc2 by SC-ααδ9, a novel small molecule antisignaling agent identified in a targeted array library. J Pharmacol Exptl Therap 287:806-813.). Briefly, the inventors seeded 4,000-6,000 cells per well in microtiter plates. Cells were allowed to attach overnight and treated with vehicle or compounds for 72 h, after which the medium was replaced with serum free medium containing 0.1% 3-[4,5-dimethylthiazol-2-yl]-2,5-diphenyl tetrazolium bromide. Plates were incubated for 3 hours in the dark and total cell number was determined by spectrophotometrically at 540 nm as previously described (Vogt A, Rice RL, Settineri CE, Yokokawa F, Yokokawa S, Wipf P and Lazo JS (1998) Disruption of insulin-like growth factor-1 signaling and down-regulation of Cdc2 by SC-ααδ9, a novel small molecule antisignaling agent identified in a targeted array library. J Pharmacol Exptl Therap 287:806-813.). […] Cells were maintained in RPMI 1640 medium containing 10% fetal bovine serum and the paclitaxel-resistant cells also contained 17 nM paclitaxel and 10 μM verapamil. […] The number of cells was determined spectrophotometrically at 490 nm minus absorbance at 630 nm after exposure to 3-(4,5-dimethylthiazol-2-yl)-5-(3-carboxymethoxyphenyl)-2-(4-sulfophenyl)-2H-tetrazolium and N-methyldibenzopyurazine methyl sulfate. […]

Row | Structure (SMILES) | G2/M cell cycle transition (tsFT210 cells) | G2/M cell cycle transition (tsFT210 cells; listed as 27) | inhibition of paclitaxel-sensitive and -resistant cell growth [1] | inhibition of PTPIB activity (PTPIB) | inhibition of tubulin assembly (bovine brain tubulin) | IC50 [2] [nM]
1 | O=C1C=CC2(Oc3cccc4cccc(c34)O2)c2cccc(OCc3ccco3)c21 [SR-7, 8-(furan-2-ylmethoxy)-1-oxo-1,4-dihydronaphthalene-4-spiro-2′-naphto [1″,8″-de][1′,3′] dioxin] | concentration-dependent arrest in the G2/M phase | can arrest mammalian cells in the G2/M phase | almost equal inhibition | no inhibition | only moderate inhibition of tubulin assembly | 3000
2 | O=C1C=CC2(Oc3cccc4cccc(c34)O2)c2cccc(O)c21 [palmarumycin CP1, 8-hydroxy-1-oxo-1,4-dihydronaphthalene-4-spiro-2′-naphtho[1″,8″-de] [1′,3′] dioxin, reference compound] | – | – | – | – | – | 3000
